What was measured:
[1] = system: mouse experimental atopic dermatitis models; experiment: Auricle edema in experimental atopic dermatitis model (anti-DNP IgE sensitization, DNFB elicitation); type: in vivo, Balb/c mice; conditions: for % Inhibition vLPR: auricle edema Day 7 post-elicitation
[2] = system: guinea pig experimental bronchial asthma models; experiment: Experimental bronchial asthma model (ovalbumin inhalation): airway resistance and asthmatic death;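 further: female Std:Hartley guinea pigs sensitized by inhaling nebulized ovalbumin once daily for 8 consecutive days, 8 to 11 animals per group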
Protocol: Guinea pigs (female, Std:Hartley, 3 weeks old, 200 to 250 g) were individually housed in a plastic chamber (width, 200 mm; depth, 300 mm; height, 167 mm). Aqueous ovalbumin (10 mg/mL) was administered to the guinea pigs once a day for sensitization by 10 min. inhalation with a nebulizer (5B, Nippon Shoji K.K.: flow rate, 6 L/min.) at a dose of 10 mg/mL during 8 cosecutive days. On Day 7 after the final sensitization, the guinea pigs were housed in a plastic chamber and inhaled using a nebulizer with a solution of ovalbumin (10 mg/mL) in physiological saline for 1 min. for elicitation (Matsumoto, T., et al., The Journal of Pharmacology and Experimental Therapeutics, 269: 1236-1244, 1994). The number of animals employed in the experiment was set to the extent there are at least 6 as individuals escaping asthmatic death. A solution of a test compound (Compound No. 130, 15 mg/kg) in water for injection was administered subcutaneously twice, i.e., 24 hours and 2 hours prior to elicitation. Similarly, the solvent alone was also administered to a negative control group. A suspension of prednisolone (10 mg/kg) in 0.5% aqueous methyl cellulose was administered orally twice, i.e., 24 hours and 2 hours prior to elicitation. Similarly, the solvent alone was also administered to another control group.
The evaluation for efficacies was conducted in terms of airway resistance. For this purpose, an apparatus dedicated to the measurement of airway resistance (K.K. Medical Agent) was employed. Measurement includes setting a guinea pig in a test chamber under a not-anesthetized condition, applying sinusoidal pressure waves of 30 Hz components to a part below the neck of the animal from the back side of the chamber, measuring respiratory waves of 30 Hz components leaking through the mouth (volume of 30 Hz air flow passing through the respiratory tract) in front of the neck, and calculating airway resistance mechanically. Measurement was carried out immediately prior to the first drug treatment (24 hours before elicitation), just prior to elicitation, 10 minutes, 1, 2, 4, 6, and 8 hours post-elicitation.
It was visually observed by a person carrying out said test in terms, of the appearance of cyanosis or suffocative death (asthmatic death) due to respiratory obstruction.
Guinea pigs were sensitized with ovalbumin and asthma was induced on Day 7 after final sensitization in the same manner as in Example 20. The number of animals employed in the experiment was set to the extent there are at least 6 as individuals escaping asthmatic death (8 to 11 animals/group). In the same manner as in Example 20, the animals were measured for airway resistance mechanically and each percent change (%) in airway resistance was calculated (each value just prior to elicitation was set as 100%). Each percent amelioration in airway resistance was calculated from the percent changes in airway resistance according to the following formula: Amelioration in Airway Resistance (%) = 1 -[((Percent Change in Airway Resistance after Drug-Administration) - (Value just prior to Challenge (100)))/((Percent Change in Airway Resistance after Solvent-Administration) - (Value just prior to Challenge (100)))]× 100 [formula]

[3] = asthmatic death due to cyanosis within several minutes after elicitation, Compound No. 130 15 mg/kg s.c., prednisolone 10 mg/kg orally, 24 and 2 hours prior to elicitation

Compound: CNC(=O)[C@H](Cc1ccc(NC(=N)N)cc1)NC(=O)[C@H](CC(C)C)C(CCCc1ccccc1)C(=O)NO (single isomer, unassigned) [Compound No. 130, N-[4-(N-Hydroxyamino)-2(R)-isobutyl-3(R or S)-(3-phenyltrimethylene)succinyl)-L-4'-guanidophenylalanine-N-methylamide 1 acetate]
- inhibitory efficacy on IgE-mediated auricle edema (FIG. 7) ([1]; 50 µg/ear/dose in ethanol painted twice a day, 1 hour pre-elicitation, 0.25, 3, 4, 5 and 6 days post-elicitation): endowed with an inhibitory activity on edemas in any of IPR, LPR, and vLPR
- inhibitory efficacy on IgE-mediated auricle edema (FIG. 6) ([1]; 60 mg/kg s.c. 24 and 2 hours prior to elicitation only, compared with prednisolone 10 mg/kg i.p., IPR 1 hour, LPR 1 day, vLPR 7 days): edema-inhibitory activity equivalent to that of prednisolone in IPR and slightly and markedly higher than that of prednisolone in LPR and vLPR, respectively
- % Inhibition IPR ([1]; auricle edema 1 hour post-elicitation, test compounds 60 mg/kg s.c., prednisolone 10 mg/kg i.p., once a day, 24 & 2 hours prior to DNFB-elicitation, vs untreated group): 64.4%
- % Inhibition LPR ([1]; auricle edema Day 1 post-elicitation, test compounds 60 mg/kg s.c., prednisolone 10 mg/kg i.p., once a day, 24 & 2 hours prior to DNFB-elicitation, vs untreated group): 51.3%
- % Inhibition vLPR ([1]; test compounds 60 mg/kg s.c., prednisolone 10 mg/kg i.p., daily from 3 to 6 days after DNFB-elicitation): 52.7%
- % Inhibition vLPR ([1]; test compounds 60 mg/kg s.c., prednisolone 10 mg/kg i.p., daily from 1 day prior to through 5 days after DNFB-elicitation): 79.0%
- airway resistance (FIG. 12) ([2]; 15 mg/kg s.c. 24 hours and 2 hours prior to elicitation, IAR 1 hour, LAR 6 hours post-elicitation): significant reduction of the increased airway resistance
- % Mortality [2, 3]: 0.0%
- (Dead Animals)/(Tested Animals) [2, 3]: 0/10
